The record followed here is patent publication US20110268688A1, “METHOD AND COMPOSITIONS FOR IMPROVING SKIN AND BODY APPEARANCE” (priority 2008, published 2011).

The subject of this experiment is adipocytes. Put plainly: Lypolysis Assay Kit (dual glycerol and free fatty acids detection), adipocyte lipolytic activity. The class given is cell-based. The settings on record: forskolin 25, 2.5, 0.25 micromolar; conjugated linoleic acid 10, 1, 0.1 micromolar; 5 hours at 37° C.; optical density at 540 nanometers. On the procedure: Suitable lipolytic agents may be identified by conducting a simple test using a lipolysis assay kit purchased from Zen-Bio. One suitable kit is the Lypolysis Assay Kit (dual glycerol and free fatty acids detection, reagents+cells) purchased from Zen-Bio (www.zen-bio.com) under catalog no. LIP-3.
The adipocyte lipolytic activity of ingredients was tested using Lypolysis Assay Kit (dual glycerol and free fatty acids detection, reagents+cells) purchased from Zen-Bio (www.zen-bio.com) under catalog no. LIP-3. Serial dilutions of forskolin and conjugated linoleic acid were prepared in Krebs-Ringer Buffer containing 1% by weight free fatty acid bovine serum albumin. Culture medium was removed from the plate wells and the cells were washed with phosphate buffered saline. The forskolin test material was added to the test wells to provide wells having a total concentration of 25, 2.5, and 0.25 micromolar. The conjugated linoleic acid test material was added to the test wells to provide concentrations of 10, 1, and 0.1 micromolar. The plate was incubated for 5 hours at 37° C. Fifty microliters of test material was removed from each plate and transferred to clean wells. Triglyceride breakdown was tested by measuring for the presence of glycerol or NEFA (non-esterified fatty acids). […] The optical density of each well of the glycerol and NEFA plate wells was measured at 540 nanometers.

Turning to conjugated linoleic acid, the “adipocyte lipolytic activity (triglyceride breakdown, glycerol or NEFA)” value is “effective in increasing lipolysis of adipocytes”.
